Results from paper PMC9374744, “Structural basis for receptor selectivity and inverse agonism in S1P5 receptors” (Nature Communications, 2022).
“And” between values parts separate entries of the source, which are not always exact repeats. Identical values can stand only once.

Assays:
human S1P5 E112A mutant = human S1P5 E112A mutant (Homo sapiens, UniProt Q9H228, E112A); test: BRET-based cAMP Gi signaling assay, S1P5 E112A; settings: inverse agonism
human S1P5 L292V mutant = human S1P5 L292V mutant (Homo sapiens, UniProt Q9H228, L292V); test: BRET-based cAMP Gi signaling assay, S1P5 L292V; settings: inverse agonism
human S1P5 L292V mutant, sequence (Q9H228 whole entry L292V): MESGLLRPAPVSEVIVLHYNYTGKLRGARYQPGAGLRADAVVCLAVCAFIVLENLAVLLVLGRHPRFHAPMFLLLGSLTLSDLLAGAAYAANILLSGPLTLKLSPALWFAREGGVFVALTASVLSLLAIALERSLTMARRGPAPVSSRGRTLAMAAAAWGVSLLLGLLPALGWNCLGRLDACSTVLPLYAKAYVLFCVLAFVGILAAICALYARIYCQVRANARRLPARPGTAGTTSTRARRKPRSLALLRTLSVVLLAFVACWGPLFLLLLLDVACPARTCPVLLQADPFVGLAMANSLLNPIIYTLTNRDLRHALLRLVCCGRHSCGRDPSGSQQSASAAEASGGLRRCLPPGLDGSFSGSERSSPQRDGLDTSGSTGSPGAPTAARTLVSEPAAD

human S1P5 K24A mutant = human S1P5 K24A mutant (Homo sapiens, UniProt Q9H228, K24A); test: BRET-based cAMP Gi signaling assay, S1P5 K24A; settings: inverse agonism
human S1P5 K24A mutant, sequence (Q9H228 whole entry K24A): as the sequence (Q9H228 whole entry L292V) above, with K24A, V292L counted along it

human S1P5 Y19F mutant = human S1P5 Y19F mutant (Homo sapiens, UniProt Q9H228, Y19F); test: BRET-based cAMP Gi signaling assay, S1P5 Y19F; settings: for BRET ratio, Supplementary Figure 6b: replicate values, listed as ONO
human S1P5 Y19F mutant, sequence (Q9H228 whole entry Y19F): as the sequence (Q9H228 whole entry L292V) above, with Y19F, V292L counted along it

human S1P5 Y19A mutant = human S1P5 Y19A mutant (Homo sapiens, UniProt Q9H228, Y19A); test: BRET-based cAMP Gi signaling assay, S1P5 Y19A; settings: inverse agonism
human S1P5 Y19A mutant, sequence (Q9H228 whole entry Y19A): as the sequence (Q9H228 whole entry L292V) above, with Y19A, V292L counted along it

human S1P5 N92C mutant = human S1P5 N92C mutant (Homo sapiens, UniProt Q9H228, N92C); test: BRET-based cAMP Gi signaling assay, S1P5 N92C; settings: inverse agonism
human S1P5 N92C mutant, sequence (Q9H228 whole entry N92C): as the sequence (Q9H228 whole entry L292V) above, with N92C, V292L counted along it

human S1P5 L292A mutant = human S1P5 L292A mutant (Homo sapiens, UniProt Q9H228, L292A); test: BRET-based cAMP Gi signaling assay, S1P5 L292A; settings: inverse agonism
human S1P5 L292A mutant, sequence (Q9H228 whole entry L292A): as the sequence (Q9H228 whole entry L292V) above, with V292A counted along it

human S1P5 Y89A mutant = human S1P5 Y89A mutant (Homo sapiens, UniProt Q9H228, Y89A); test: BRET-based cAMP Gi signaling assay, S1P5 Y89A; settings: inverse agonism
human S1P5 Y89A mutant, sequence (Q9H228 whole entry Y89A): as the sequence (Q9H228 whole entry L292V) above, with Y89A, V292L counted along it

human S1P5 V115A mutant = human S1P5 V115A mutant (Homo sapiens, UniProt Q9H228, V115A); test: BRET-based cAMP Gi signaling assay, S1P5 V115A; settings: inverse agonism
human S1P5 V115A mutant, sequence (Q9H228 whole entry V115A): as the sequence (Q9H228 whole entry L292V) above, with V115A, V292L counted along it

human S1P5 Y89W mutant = human S1P5 Y89W mutant (Homo sapiens, UniProt Q9H228, Y89W); test: BRET-based cAMP Gi signaling assay, S1P5 Y89W; settings: inverse agonism
human S1P5 Y89W mutant, sequence (Q9H228 whole entry Y89W): as the sequence (Q9H228 whole entry L292V) above, with Y89W, V292L counted along it

human S1P5 R111A mutant = human S1P5 R111A mutant (Homo sapiens, UniProt Q9H228, R111A); test: BRET-based cAMP Gi signaling assay, S1P5 R111A; settings: inverse agonism
human S1P5 R111A mutant, sequence (Q9H228 whole entry R111A): as the sequence (Q9H228 whole entry L292V) above, with R111A, V292L counted along it

human S1P5 K24R mutant = human S1P5 K24R mutant (Homo sapiens, UniProt Q9H228, K24R); test: BRET-based cAMP Gi signaling assay, S1P5 K24R; settings: K24R; for BRET ratio, Supplementary Figure 6b: replicate values, listed as ONO
human S1P5 K24R mutant, sequence (Q9H228 whole entry K24R): as the sequence (Q9H228 whole entry L292V) above, with K24R, V292L counted along it

[1] = Figure 2c source data, N/R = no response

human S1P5 E112A mutant, sequence (Q9H228 whole entry E112A): as the sequence (Q9H228 whole entry L292V) above, with E112A, V292L counted along it

SMILES: O=C(O)CCCN1CCc2cccc(OCCc3cccc4ccccc34)c2CC1 [ONO-5430608, 4-{6-[2-(1-naphthyl)ethoxy]-1,2,4,5-tetrahydro-3H-3-benzazepin-3-yl} butanoic acid]
- ONO-5430608 pEC50, single experiments #1-#3 (human S1P5 E112A mutant; [1]): N/R
- ONO, pEC50, M (human S1P5 E112A mutant; n=3, N/R = no response): N/R
- EC50 (human S1P5 L292V mutant; ONO, pEC50, M, L292V, mean ± SD, n=3): 23.4 nM
- EC50 (human S1P5 L292V mutant; ONO-5430608 pEC50, single experiments #1-#3, L292V, Figure 2c source data): 23 nM and 25.6 nM and 22.5 nM
- ONO-5430608 pEC50, single experiments #1-#3 (human S1P5 K24A mutant; [1]): N/R
- ONO, pEC50, M (human S1P5 K24A mutant; n=3, N/R = no response): N/R
- BRET ratio, Supplementary Figure 6b (human S1P5 Y19F mutant; [ONO] 0.169351 nM): 0.7728 and 0.7856 and 0.7903 and 0.7898 and 0.7857 and 0.7721 and 0.7815 and 0.7858 and 0.7955
- BRET ratio, Supplementary Figure 6b (human S1P5 Y19F mutant; [ONO] 0.508053 nM): 0.7709 and 0.7829 and 0.7789 and 0.7882 and 0.7908 and 0.7857 and 0.7787 and 0.7826 and 0.7773
- BRET ratio, Supplementary Figure 6b (human S1P5 Y19F mutant; [ONO] 1.52416 nM): 0.7699 and 0.7813 and 0.7753 and 0.786 and 0.7843 and 0.7814 and 0.7777 and 0.78 and 0.7821
- BRET ratio, Supplementary Figure 6b (human S1P5 Y19F mutant; [ONO] 4.57247 nM): 0.7759 and 0.7968 and 0.7779 and 0.7827 and 0.7847 (2×) and 0.7768 and 0.7813 and 0.7893
- BRET ratio, Supplementary Figure 6b (human S1P5 Y19F mutant; [ONO] 13.7174 nM): 0.7824 (2×) and 0.7736 and 0.7864 and 0.7844 and 0.776 and 0.7899 and 0.7904 and 0.7943
- ONO-5430608 pEC50, single experiments #1-#3 (human S1P5 Y19F mutant; inverse agonism, Figure 2c source data, N/R = no response): N/R
- ONO, pEC50, M (human S1P5 Y19F mutant; inverse agonism, n=3, N/R = no response): N/R
- ONO-5430608 pEC50, single experiments #1-#3 (human S1P5 Y19A mutant; [1]): N/R
- ONO, pEC50, M (human S1P5 Y19A mutant; n=3, N/R = no response): N/R
- ONO-5430608 pEC50, single experiments #1-#3 (human S1P5 N92C mutant; [1]): N/R
- ONO, pEC50, M (human S1P5 N92C mutant; n=3, N/R = no response): N/R
- EC50 (human S1P5 L292A mutant; ONO, pEC50, M, L292A, mean ± SD, n=3): 21.9 nM
- EC50 (human S1P5 L292A mutant; ONO-5430608 pEC50, single experiments #1-#3, L292A, Figure 2c source data): 18.9 nM and 24 nM and 23.2 nM
- ONO-5430608 pEC50, single experiments #1-#3 (human S1P5 Y89A mutant; [1]): N/R
- ONO, pEC50, M (human S1P5 Y89A mutant; n=3, N/R = no response): N/R and abolishes the functional response
- EC50 (human S1P5 V115A mutant; ONO, pEC50, M, V115A, mean ± SD, n=3): 29.5 nM
- EC50 (human S1P5 V115A mutant; ONO-5430608 pEC50, single experiments #1-#3, V115A, Figure 2c source data): 30.6 nM and 24.8 nM and 34.5 nM
- EC50 (human S1P5 Y89W mutant; ONO, pEC50, M, Y89W, mean ± SD, n=3): 2.95 nM
- EC50 (human S1P5 Y89W mutant; ONO-5430608 pEC50, single experiments #1-#3, Y89W, Figure 2c source data): 3.01 nM and 1.99 nM and 4.31 nM
- ONO-5430608 pEC50, single experiments #1-#3 (human S1P5 R111A mutant; [1]): N/R
- ONO, pEC50, M (human S1P5 R111A mutant; n=3, N/R = no response): N/R
- BRET ratio, Supplementary Figure 6b (human S1P5 K24R mutant; [ONO] 0.169351 nM): 0.7619 and 0.7605 and 0.7627 and 0.7643 and 0.765 and 0.7649 and 0.7612 and 0.7652 and 0.7621
- BRET ratio, Supplementary Figure 6b (human S1P5 K24R mutant; [ONO] 0.508053 nM): 0.7573 and 0.7607 and 0.7624 and 0.7643 and 0.7627 and 0.7635 and 0.7628 and 0.761 and 0.7617
- BRET ratio, Supplementary Figure 6b (human S1P5 K24R mutant; [ONO] 1.52416 nM): 0.7542 and 0.7548 and 0.7577 and 0.7568 (2×) and 0.7598 and 0.7585 and 0.7546 and 0.7523
- BRET ratio, Supplementary Figure 6b (human S1P5 K24R mutant; [ONO] 4.57247 nM): 0.7493 and 0.7475 and 0.7463 and 0.7487 and 0.7486 and 0.7479 and 0.7433 and 0.7453 and 0.7422
- BRET ratio, Supplementary Figure 6b (human S1P5 K24R mutant; [ONO] 13.7174 nM): 0.7349 and 0.7366 and 0.7407 and 0.7346 and 0.7367 and 0.7337 and 0.7316 and 0.7355 and 0.7298
- EC50 (human S1P5 K24R mutant; ONO, pEC50, M, inverse agonism, mean ± SD, n=3): 4.57 nM
